Tests used:
Assay in all cases: radiometric filter-binding kinase assay
PRKCA (human) = PRKCA (human) (UniProt P17252)
ERBB4 (human) = ERBB4 (human) (UniProt Q15303)
LCK (mouse) = settings: accession and sequence are those of the human protein
MAPKAPK2 (human) = MAPKAPK2 (human) (UniProt P49137)
MARK1 (human) = MARK1 (human) (UniProt Q9P0L2)
INSR (human) = INSR (human) (UniProt P06213)
EPHB2 (human) = EPHB2 (human) (UniProt P29323)
CAMKK2 (human) = CAMKK2 (human) (UniProt Q96RR4)
INSRR (human) = INSRR (human) (UniProt P14616)
BTK (human) = BTK (human) (UniProt Q06187)
SRPK1 (human) = SRPK1 (human) (UniProt Q96SB4)
MAP2K1 (human) = MAP2K1 (human) (UniProt Q02750)
DYRK2 (human) = DYRK2 (human) (UniProt Q92630)
PRKACA (human) = PRKACA (human) (UniProt P17612)
NEK6 (human) = NEK6 (human) (UniProt Q9HC98)
CSK (human) = CSK (human) (UniProt P41240)
HIPK3 (human) = HIPK3 (human) (UniProt Q9H422)
PAK7 (human) = PAK7 (human) (UniProt Q9P286)

Chain of INSRR (human) (P14616 whole entry, looked up): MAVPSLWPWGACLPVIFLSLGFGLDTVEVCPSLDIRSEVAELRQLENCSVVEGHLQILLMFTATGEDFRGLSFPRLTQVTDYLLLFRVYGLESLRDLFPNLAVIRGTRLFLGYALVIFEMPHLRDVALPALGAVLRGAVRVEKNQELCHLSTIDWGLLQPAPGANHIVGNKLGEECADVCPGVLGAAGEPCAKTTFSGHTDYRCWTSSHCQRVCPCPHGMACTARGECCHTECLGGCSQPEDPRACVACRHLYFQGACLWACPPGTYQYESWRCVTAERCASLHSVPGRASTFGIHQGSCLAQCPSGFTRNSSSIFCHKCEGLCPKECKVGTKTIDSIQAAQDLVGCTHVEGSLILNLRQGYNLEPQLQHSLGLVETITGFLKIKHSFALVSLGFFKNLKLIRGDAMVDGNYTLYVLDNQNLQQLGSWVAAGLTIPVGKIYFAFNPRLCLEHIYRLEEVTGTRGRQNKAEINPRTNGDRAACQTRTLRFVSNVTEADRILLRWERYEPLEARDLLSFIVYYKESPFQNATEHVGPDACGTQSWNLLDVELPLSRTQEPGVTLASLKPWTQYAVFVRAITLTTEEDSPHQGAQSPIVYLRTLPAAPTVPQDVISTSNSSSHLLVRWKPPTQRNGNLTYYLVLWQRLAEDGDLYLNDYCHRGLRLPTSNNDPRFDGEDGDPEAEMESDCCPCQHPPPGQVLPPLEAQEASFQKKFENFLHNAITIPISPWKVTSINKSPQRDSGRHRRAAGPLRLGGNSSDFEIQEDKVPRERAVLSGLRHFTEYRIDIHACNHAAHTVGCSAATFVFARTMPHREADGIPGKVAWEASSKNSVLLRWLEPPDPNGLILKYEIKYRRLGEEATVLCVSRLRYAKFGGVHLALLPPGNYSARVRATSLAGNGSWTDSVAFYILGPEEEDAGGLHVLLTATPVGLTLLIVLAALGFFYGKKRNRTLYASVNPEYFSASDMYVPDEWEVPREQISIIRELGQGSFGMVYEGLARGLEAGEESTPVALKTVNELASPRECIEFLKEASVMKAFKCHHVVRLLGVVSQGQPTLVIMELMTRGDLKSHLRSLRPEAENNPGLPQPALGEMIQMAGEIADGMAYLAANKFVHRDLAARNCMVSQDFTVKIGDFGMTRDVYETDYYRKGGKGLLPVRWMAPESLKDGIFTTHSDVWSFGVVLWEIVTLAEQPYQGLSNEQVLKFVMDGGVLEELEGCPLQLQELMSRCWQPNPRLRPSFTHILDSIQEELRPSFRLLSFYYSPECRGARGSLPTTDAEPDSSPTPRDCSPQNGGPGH
Chain of ERBB4 (human) (Q15303 whole entry, looked up): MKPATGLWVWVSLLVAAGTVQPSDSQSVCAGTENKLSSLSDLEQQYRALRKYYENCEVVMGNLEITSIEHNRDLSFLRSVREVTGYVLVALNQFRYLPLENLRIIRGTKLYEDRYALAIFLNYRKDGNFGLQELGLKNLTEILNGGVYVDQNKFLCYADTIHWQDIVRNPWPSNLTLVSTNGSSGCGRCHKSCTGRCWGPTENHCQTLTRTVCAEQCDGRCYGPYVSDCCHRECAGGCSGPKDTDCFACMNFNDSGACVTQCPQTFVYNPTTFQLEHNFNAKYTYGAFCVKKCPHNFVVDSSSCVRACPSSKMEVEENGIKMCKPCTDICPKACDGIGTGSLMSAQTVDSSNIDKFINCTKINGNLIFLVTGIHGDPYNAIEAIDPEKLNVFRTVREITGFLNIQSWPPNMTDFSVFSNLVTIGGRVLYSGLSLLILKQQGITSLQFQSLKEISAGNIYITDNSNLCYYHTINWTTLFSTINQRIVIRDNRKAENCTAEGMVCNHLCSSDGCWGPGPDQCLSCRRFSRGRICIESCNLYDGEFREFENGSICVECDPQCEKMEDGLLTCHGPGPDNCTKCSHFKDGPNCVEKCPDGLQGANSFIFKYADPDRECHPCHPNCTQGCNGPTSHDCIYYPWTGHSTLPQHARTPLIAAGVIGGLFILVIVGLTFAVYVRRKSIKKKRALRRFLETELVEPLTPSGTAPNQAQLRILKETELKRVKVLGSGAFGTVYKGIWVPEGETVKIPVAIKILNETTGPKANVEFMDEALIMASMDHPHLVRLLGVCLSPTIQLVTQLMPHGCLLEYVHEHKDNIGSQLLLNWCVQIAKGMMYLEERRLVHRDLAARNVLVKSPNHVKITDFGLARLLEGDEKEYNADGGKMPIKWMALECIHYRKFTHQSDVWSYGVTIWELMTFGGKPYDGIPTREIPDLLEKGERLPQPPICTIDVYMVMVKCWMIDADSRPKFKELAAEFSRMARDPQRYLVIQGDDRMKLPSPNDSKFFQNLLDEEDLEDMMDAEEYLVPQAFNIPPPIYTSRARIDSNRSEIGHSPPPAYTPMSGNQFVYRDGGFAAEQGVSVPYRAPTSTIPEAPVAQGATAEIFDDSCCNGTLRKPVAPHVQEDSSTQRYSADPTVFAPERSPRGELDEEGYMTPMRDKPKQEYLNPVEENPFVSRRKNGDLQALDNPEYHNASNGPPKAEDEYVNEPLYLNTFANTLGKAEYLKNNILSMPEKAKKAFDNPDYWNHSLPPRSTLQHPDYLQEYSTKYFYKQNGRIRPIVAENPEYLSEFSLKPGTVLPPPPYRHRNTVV
Chain of SRPK1 (human) (Q96SB4 whole entry, looked up): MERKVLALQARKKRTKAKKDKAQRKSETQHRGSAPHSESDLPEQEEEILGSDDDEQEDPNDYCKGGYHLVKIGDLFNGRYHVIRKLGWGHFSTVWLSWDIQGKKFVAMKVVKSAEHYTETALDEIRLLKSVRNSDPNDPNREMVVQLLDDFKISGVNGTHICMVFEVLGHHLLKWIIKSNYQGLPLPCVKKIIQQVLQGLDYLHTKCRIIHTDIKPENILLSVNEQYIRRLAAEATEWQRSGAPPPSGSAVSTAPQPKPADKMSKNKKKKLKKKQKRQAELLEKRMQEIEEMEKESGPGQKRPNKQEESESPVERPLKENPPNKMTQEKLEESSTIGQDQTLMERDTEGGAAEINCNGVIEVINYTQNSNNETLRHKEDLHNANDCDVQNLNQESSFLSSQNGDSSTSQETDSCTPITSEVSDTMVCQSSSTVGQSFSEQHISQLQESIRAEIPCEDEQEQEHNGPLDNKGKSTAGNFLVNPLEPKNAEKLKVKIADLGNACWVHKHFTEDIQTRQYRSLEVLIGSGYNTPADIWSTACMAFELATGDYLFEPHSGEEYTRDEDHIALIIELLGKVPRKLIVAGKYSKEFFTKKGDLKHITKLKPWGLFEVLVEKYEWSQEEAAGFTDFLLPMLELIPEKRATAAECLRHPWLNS
Chain of DYRK2 (human) (Q92630 whole entry, looked up): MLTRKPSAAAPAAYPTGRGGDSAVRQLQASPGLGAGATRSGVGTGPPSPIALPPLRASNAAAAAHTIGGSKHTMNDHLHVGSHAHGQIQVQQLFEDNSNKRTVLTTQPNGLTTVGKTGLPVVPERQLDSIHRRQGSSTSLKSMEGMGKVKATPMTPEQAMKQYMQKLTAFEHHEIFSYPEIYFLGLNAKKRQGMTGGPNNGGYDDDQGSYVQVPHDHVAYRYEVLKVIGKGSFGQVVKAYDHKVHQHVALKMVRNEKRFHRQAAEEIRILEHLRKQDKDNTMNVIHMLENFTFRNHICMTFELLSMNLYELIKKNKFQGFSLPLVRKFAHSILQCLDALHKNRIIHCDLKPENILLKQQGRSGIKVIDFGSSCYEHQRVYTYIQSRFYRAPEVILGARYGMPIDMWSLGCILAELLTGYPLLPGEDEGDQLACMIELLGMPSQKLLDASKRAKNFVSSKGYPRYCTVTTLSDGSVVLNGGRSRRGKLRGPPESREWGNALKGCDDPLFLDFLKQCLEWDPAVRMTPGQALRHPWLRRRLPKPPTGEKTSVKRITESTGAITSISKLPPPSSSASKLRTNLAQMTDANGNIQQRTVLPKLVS
Chain of EPHB2 (human) (P29323 whole entry, looked up): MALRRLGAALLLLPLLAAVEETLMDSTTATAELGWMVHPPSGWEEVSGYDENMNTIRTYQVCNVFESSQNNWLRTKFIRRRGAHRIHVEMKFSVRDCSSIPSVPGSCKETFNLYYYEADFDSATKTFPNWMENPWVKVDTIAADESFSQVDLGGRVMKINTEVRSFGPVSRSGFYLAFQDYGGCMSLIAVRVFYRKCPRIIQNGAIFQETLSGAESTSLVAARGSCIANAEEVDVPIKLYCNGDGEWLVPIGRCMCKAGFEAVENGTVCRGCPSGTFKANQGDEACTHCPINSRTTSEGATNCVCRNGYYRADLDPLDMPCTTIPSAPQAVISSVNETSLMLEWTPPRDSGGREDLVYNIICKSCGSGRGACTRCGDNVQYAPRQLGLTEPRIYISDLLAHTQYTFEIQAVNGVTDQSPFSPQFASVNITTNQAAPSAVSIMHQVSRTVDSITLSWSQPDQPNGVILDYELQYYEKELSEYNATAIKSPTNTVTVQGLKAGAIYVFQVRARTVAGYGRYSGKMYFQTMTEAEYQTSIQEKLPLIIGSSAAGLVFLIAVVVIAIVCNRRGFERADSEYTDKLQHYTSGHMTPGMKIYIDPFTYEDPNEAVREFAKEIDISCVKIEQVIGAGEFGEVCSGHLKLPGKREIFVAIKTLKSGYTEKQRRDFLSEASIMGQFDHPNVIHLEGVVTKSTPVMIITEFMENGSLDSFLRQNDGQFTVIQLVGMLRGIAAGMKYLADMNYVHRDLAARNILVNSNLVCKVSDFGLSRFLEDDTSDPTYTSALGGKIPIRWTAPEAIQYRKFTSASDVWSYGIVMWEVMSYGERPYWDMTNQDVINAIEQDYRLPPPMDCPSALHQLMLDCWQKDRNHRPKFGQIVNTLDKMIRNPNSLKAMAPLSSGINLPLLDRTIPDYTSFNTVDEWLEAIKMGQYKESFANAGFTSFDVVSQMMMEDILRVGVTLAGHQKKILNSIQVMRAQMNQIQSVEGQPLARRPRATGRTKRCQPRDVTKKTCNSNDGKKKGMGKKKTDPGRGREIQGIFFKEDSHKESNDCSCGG

c1ccc2c(-c3cnn4cc(-c5ccc(N6CCNCC6)cc5)cnc34)ccnc2c1
residual activity (PRKCA (human); compound 0.1 µM): 92% | residual activity (PRKCA (human); compound 1.0 µM): 96% | residual activity (PRKCA (human); compound 10.0 µM): 88% | residual activity (ERBB4 (human); compound 0.1 µM): 88% | residual activity (ERBB4 (human); compound 1.0 µM): 76% | residual activity (ERBB4 (human); compound 10.0 µM): 56% | residual activity (LCK (mouse); compound 0.1 µM): 81% | residual activity (LCK (mouse); compound 1.0 µM): 40% | residual activity (LCK (mouse); compound 10.0 µM): 7% | residual activity (MAPKAPK2 (human); compound 0.1 µM): 81% | residual activity (MAPKAPK2 (human); compound 1.0 µM): 91% | residual activity (MAPKAPK2 (human); compound 10.0 µM): 73% | residual activity (MARK1 (human); compound 0.1 µM): 88% | residual activity (MARK1 (human); compound 1.0 µM): 54% | residual activity (MARK1 (human); compound 10.0 µM): 14% | residual activity (INSR (human); compound 0.1 µM): 105% | residual activity (INSR (human); compound 1.0 µM): 107% | residual activity (INSR (human); compound 10.0 µM): 93% | residual activity (EPHB2 (human); compound 0.1 µM): 108% | residual activity (EPHB2 (human); compound 1.0 µM): 80% | residual activity (EPHB2 (human); compound 10.0 µM): 37% | residual activity (CAMKK2 (human); compound 0.1 µM): 43% | residual activity (CAMKK2 (human); compound 1.0 µM): 13% | residual activity (CAMKK2 (human); compound 10.0 µM): 8% | residual activity (INSRR (human); compound 0.1 µM): 82% | residual activity (INSRR (human); compound 1.0 µM): 68% | residual activity (INSRR (human); compound 10.0 µM): 37% | residual activity (BTK (human); compound 0.1 µM): 111% | residual activity (BTK (human); compound 1.0 µM): 94% | residual activity (BTK (human); compound 10.0 µM): 52% | residual activity (SRPK1 (human); compound 0.1 µM): 95% | residual activity (SRPK1 (human); compound 1.0 µM): 116% | residual activity (SRPK1 (human); compound 10.0 µM): 79% | residual activity (MAP2K1 (human); compound 0.1 µM): 98% | residual activity (MAP2K1 (human); compound 1.0 µM): 93% | residual activity (MAP2K1 (human); compound 10.0 µM): 67% | residual activity (DYRK2 (human); compound 0.1 µM): 108% | residual activity (DYRK2 (human); compound 1.0 µM): 107% | residual activity (DYRK2 (human); compound 10.0 µM): 77% | residual activity (PRKACA (human); compound 0.1 µM): 99% | residual activity (PRKACA (human); compound 1.0 µM): 101% | residual activity (PRKACA (human); compound 10.0 µM): 94% | residual activity (NEK6 (human); compound 0.1 µM): 80% | residual activity (NEK6 (human); compound 1.0 µM): 83% | residual activity (NEK6 (human); compound 10.0 µM): 88% | residual activity (CSK (human); compound 0.1 µM): 95% | residual activity (CSK (human); compound 1.0 µM): 103% | residual activity (CSK (human); compound 10.0 µM): 72% | residual activity (HIPK3 (human); compound 0.1 µM): 104% | residual activity (HIPK3 (human); compound 10.0 µM): 90% | residual activity (PAK7 (human); compound 0.1 µM): 95% | residual activity (PAK7 (human); compound 1.0 µM): 82%

Source: the kinase profiling compilation of Christmann-Franck et al. (2016)
